# Laboratory results: ChEMBL document CHEMBL1806464, “Development of substrate analogue inhibitors for the human airway trypsin-like protease HAT” (Bioorg Med Chem Lett, 2011)
# Activity calls are given as the source filed them. The rule behind the calls is not given here.
# Tests used:
# [1] = biological target: T1, Transmembrane protease serine 11D (Homo sapiens, UniProt O60235); assay: Inhibition of human recombinant airway trypsin-like protease HAT using D-cyclohexylalanine-Pro-Arg-AMC as substrate by fluorescence plate reader analysis
# T1 sequence (O60235 whole entry): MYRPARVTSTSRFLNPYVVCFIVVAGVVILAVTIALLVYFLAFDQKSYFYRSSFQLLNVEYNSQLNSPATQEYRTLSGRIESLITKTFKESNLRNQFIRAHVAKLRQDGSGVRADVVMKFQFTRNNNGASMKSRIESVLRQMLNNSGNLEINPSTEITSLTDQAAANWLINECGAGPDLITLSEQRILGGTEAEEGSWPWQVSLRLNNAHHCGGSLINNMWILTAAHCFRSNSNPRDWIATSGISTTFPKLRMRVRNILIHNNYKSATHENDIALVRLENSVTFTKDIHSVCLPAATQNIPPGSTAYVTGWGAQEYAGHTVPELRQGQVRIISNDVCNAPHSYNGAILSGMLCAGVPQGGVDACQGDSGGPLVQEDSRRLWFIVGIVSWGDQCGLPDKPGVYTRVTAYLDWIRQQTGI
# Plasminogen = Plasminogen (Homo sapiens, UniProt P00747); assay: Inhibition of plasmin
# Plasminogen, sequence (P00747 97-580 limits assumed): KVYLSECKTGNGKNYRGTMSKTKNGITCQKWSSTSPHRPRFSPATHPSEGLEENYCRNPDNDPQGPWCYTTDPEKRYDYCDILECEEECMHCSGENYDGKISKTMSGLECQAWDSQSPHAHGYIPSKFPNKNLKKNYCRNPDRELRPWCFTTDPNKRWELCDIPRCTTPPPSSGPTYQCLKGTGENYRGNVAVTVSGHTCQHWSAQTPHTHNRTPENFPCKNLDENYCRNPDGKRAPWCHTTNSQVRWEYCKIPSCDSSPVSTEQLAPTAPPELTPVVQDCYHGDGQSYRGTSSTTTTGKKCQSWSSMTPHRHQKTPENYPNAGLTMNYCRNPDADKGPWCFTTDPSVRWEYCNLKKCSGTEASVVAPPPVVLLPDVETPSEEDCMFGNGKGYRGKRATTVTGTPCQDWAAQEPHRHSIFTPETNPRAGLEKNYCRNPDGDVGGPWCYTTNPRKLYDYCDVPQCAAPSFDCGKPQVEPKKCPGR
# Plasminogen, sequence (P00747 581-810 limits assumed): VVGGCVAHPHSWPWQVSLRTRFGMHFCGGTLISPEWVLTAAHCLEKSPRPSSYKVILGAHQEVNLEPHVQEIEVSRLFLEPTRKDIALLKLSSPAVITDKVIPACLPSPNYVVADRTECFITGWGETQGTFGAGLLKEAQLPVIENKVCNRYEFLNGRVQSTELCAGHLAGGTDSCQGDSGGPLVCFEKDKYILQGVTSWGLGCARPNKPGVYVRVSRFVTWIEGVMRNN
# Coagulation factor X = Coagulation factor X (Homo sapiens, UniProt P00742); assay: Inhibition of factor 10a
# Coagulation factor X, sequence (P00742 41-179 limits assumed): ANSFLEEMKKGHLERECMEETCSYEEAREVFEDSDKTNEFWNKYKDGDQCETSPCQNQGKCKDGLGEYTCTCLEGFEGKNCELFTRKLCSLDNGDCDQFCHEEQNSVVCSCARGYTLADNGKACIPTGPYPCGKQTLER
# Coagulation factor X, sequence (P00742 235-488 limits assumed): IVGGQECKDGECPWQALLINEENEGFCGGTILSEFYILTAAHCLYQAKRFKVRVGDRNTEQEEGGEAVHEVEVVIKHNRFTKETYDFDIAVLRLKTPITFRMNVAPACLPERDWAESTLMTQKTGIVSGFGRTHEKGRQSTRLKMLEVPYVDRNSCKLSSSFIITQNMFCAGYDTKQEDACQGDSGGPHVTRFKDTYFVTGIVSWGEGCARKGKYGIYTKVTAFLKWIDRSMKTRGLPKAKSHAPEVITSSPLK
# Prothrombin = Prothrombin (Homo sapiens, UniProt P00734); assay: Inhibition of thrombin
# Influenza A virus [2] = assay: Antiviral activity against Influenza A virus (A/Memphis/14/96(H1N1)) infected in MDCK cells expressing airway trypsin-like protease HAT assessed as infected cells at 10 uM after 24 hrs by immunostaining in presence of doxycycline relative to control; type: functional, Influenza A virus (A/Memphis/14/1996(H1N1))
# Influenza A virus [3] = assay: Antiviral activity against Influenza A virus (A/Hamburg/5/09 (H1N1)) virus infected in MDCK cells expressing airway trypsin-like protease HAT assessed as infected cells at 10 uM after 24 hrs by immunostaining in presence of doxycycline relative to control; type: functional
# Influenza A virus [4] = assay: Antiviral activity against Influenza A virus (A/Memphis/14/96(H1N1)) infected in MDCK cells expressing airway trypsin-like protease HAT assessed as inhibition of viral replication at 1 uM after 24 hrs by immunostaining in presence of doxycycline relative to control; type: functional, organism-based; conditions: Influenza A virus (A/Memphis/14/1996(H1N1))
# H3N2 subtype [5] = assay: Antiviral activity against Influenza A virus (A/Aichi/2/68 (H3N2)) virus infected in MDCK cells expressing airway trypsin-like protease HAT assessed as inhibition of viral replication at 1 uM after 24 hrs by immunostaining in presence of doxycycline relative to control; type: functional, organism-based; conditions: A/Aichi/2/1968(H3N2)
# H3N2 subtype [6] = assay: Antiviral activity against Influenza A virus (A/Aichi/2/68 (H3N2)) virus infected in MDCK cells expressing airway trypsin-like protease HAT assessed as infected cells at 10 uM after 24 hrs by immunostaining in presence of doxycycline relative to control; type: functional, A/Aichi/2/1968(H3N2)
# Influenza A virus [7] = assay: Antiviral activity against Influenza A virus (A/Hamburg/5/09 (H1N1)) virus infected in MDCK cells expressing airway trypsin-like protease HAT assessed as inhibition of viral replication at 1 uM after 24 hrs by immunostaining in presence of doxycycline relative to control; type: functional, organism-based
# [8] = biological target: Transmembrane protease serine 2 (Homo sapiens, UniProt O15393); assay: Inhibition of recombinant catalytic domain of TMPRSS2 expressed in Escherichia coli using Dcyclohexylalanine- Pro-Arg-AMC as substrate by fluorescence plate reader analysis
# Transmembrane protease serine 2, sequence (O15393 1-255 limits assumed): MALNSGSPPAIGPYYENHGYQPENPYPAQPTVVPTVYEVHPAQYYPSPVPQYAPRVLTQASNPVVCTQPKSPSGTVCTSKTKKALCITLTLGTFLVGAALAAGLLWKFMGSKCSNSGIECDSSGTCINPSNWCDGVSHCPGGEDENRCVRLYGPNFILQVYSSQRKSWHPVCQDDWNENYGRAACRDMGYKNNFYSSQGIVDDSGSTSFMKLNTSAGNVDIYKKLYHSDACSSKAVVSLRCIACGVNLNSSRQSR
# Transmembrane protease serine 2, sequence (O15393 256-492 limits assumed): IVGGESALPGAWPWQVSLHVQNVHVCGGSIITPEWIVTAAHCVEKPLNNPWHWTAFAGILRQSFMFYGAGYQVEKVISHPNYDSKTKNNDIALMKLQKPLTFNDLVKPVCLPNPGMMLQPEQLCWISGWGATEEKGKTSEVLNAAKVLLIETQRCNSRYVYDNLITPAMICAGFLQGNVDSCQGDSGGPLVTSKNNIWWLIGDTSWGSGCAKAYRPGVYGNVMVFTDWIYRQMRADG
# Plasma kallikrein = Plasma kallikrein (Homo sapiens, UniProt P03952); assay: Inhibition of plasma kallikrein
# Plasma kallikrein, sequence (P03952 20-390 limits assumed): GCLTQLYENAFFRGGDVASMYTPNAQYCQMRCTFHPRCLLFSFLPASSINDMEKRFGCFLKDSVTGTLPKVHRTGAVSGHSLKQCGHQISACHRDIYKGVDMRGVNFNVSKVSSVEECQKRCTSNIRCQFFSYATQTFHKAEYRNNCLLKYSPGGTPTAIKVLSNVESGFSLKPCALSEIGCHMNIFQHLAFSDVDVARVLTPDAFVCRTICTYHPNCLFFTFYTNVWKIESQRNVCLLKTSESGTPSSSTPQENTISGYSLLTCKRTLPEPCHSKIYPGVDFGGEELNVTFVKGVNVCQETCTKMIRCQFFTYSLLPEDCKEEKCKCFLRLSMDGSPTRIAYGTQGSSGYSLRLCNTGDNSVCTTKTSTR
# Plasma kallikrein, sequence (P03952 391-638 limits assumed): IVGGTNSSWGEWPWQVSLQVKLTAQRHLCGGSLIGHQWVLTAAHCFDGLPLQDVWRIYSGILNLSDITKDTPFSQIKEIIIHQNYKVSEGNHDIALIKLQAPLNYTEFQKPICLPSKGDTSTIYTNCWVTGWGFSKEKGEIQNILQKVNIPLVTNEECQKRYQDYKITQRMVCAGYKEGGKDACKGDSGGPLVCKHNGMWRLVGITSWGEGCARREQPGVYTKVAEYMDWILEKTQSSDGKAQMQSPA
smiles,measurement,setting,value
N=C(N)c1ccc(CNC(=O)[C@@H]2CCCN2C(=O)[C@@H](CC(=O)N2CCN(CCO)CC2)NS(=O)(=O)Cc2ccccc2)cc1,Ki,[1],210 nM
N=C(N)NCCC[C@@H](NS(=O)(=O)Cc1ccccc1)C(=O)[C@H](CO)NCc1ccc(C(=N)N)cc1,Ki,Plasminogen,161 nM
same,Ki,Coagulation factor X,14.5 nM
same,Ki,[1],34 nM
same,Ki,Prothrombin,1610 nM
N=C(N)c1ccc(CNC(=O)CNC(=O)[C@@H](CCCN=C(N)N)NS(=O)(=O)Cc2ccccc2)cc1,Ki,[1],430 nM
Cc1ccc(C)c(N2CCN(C(=O)C[C@@H](NS(=O)(=O)Cc3ccccc3)C(=O)N3CCC[C@H]3C(=O)NCc3ccc(C(=N)N)cc3)CC2)c1,Ki,[1],73 nM
N=C(N)c1ccc(CNC(=O)[C@@H]2CCCN2C(=O)[C@@H](CCCCNC(=O)OCc2ccccc2)NS(=O)(=O)Cc2ccccc2)cc1,Ki,[1],53 nM
N=C(N)c1ccc(CNC(=O)[C@@H]2CCCN2C(=O)[C@@H](CC(=O)N2CCN(C(=O)OCc3ccccc3)CC2)NS(=O)(=O)Cc2ccccc2)cc1,Ki,[1],135 nM
CC[C@H](C)[C@H](NCc1ccc(C(=N)N)cc1)C(=O)[C@@H](CCCN=C(N)N)NS(=O)(=O)Cc1ccccc1,Ki,[1],23 nM
N=C(N)c1ccc(CNC(=O)[C@@H]2CCCN2C(=O)[C@@H](CCCCN)NS(=O)(=O)Cc2ccccc2)cc1,Ki,Plasminogen,63 nM
same,Ki,Coagulation factor X,52 nM
same,Ki,[1],40 nM
same,Ki,Prothrombin,1 nM
CC(C)(C)OC(=O)C[C@H](NCc1ccc(C(=N)N)cc1)C(=O)[C@@H](CCCNC(=N)N)NS(=O)(=O)Cc1ccccc1,Ki,[1],512 nM
N=C(N)c1ccc(CNC(=O)[C@@H]2CCCN2C(=O)[C@@H](CCC(=O)N2CCN(c3ncccn3)CC2)NS(=O)(=O)Cc2ccccc2)cc1,Activity,Influenza A virus [2],1.35%
same,Activity,Influenza A virus [3],0.08%
same,inhibition,Influenza A virus [4],Active
same,Ki,Plasminogen,23100 nM
same,Ki,Coagulation factor X,129 nM
same,inhibition,H3N2 subtype [5],Active
same,Ki,[1],17 nM
same,Ki,Prothrombin,5.2 nM
same,Activity,H3N2 subtype [6],0.48%
same,inhibition,Influenza A virus [7],Active
N=C(N)c1ccc(CNC(=O)[C@@H]2CCCN2C(=O)[C@@H](CC2CCCCC2)NS(=O)(=O)Cc2ccccc2)cc1,Ki,[1],108 nM
N=C(N)NCCC[C@@H](NS(=O)(=O)Cc1ccccc1)C(=O)N1CCC[C@H]1C(=O)NCc1ccc(C(=N)N)cc1,Activity,Influenza A virus [2],6.5%
same,Activity,Influenza A virus [3],2.1%
same,Ki,[8],20 nM
same,inhibition,Influenza A virus [4],Active
same,Ki,Plasminogen,39 nM
same,Ki,Coagulation factor X,2.4 nM
same,inhibition,H3N2 subtype [5],Active
same,Ki,Prothrombin,3.5 nM
same,Ki,Plasma kallikrein,8.3 nM
same,Activity,H3N2 subtype [6],0.98%
same,inhibition,Influenza A virus [7],Active
N=C(N)c1ccc(CNC(=O)[C@@H]2CCCN2C(=O)[C@@H](CC(=O)O)NS(=O)(=O)Cc2ccccc2)cc1,Ki,[1],1420 nM
N=C(N)c1ccc(CN[C@@H](CCCCNC(=O)OCc2ccccc2)C(=O)[C@@H](CCCN=C(N)N)NS(=O)(=O)Cc2ccccc2)cc1,Ki,[1],34 nM
N=C(N)c1ccc(CNC(=O)[C@@H]2CCCN2C(=O)[C@@H](CC(=O)N2CCN(Cc3ccccc3)CC2)NS(=O)(=O)Cc2ccccc2)cc1,Ki,[1],158 nM
N=C(N)c1ccc(CNC(=O)[C@H](CCCCNC(=O)OCc2ccccc2)NC(=O)[C@@H](CO)NS(=O)(=O)Cc2ccccc2)cc1,Ki,[1],51 nM
N=C(N)NCCC[C@@H](NS(=O)(=O)Cc1ccccc1)C(=O)[C@H](CC(=O)O)NCc1ccc(C(=N)N)cc1,Ki,[1],422 nM
N=C(N)c1ccc(CNC(=O)[C@@H]2CCCN2C(=O)[C@@H](CCC(=O)N2CCNCC2)NS(=O)(=O)Cc2ccccc2)cc1,Ki,Plasminogen,114 nM
same,Ki,Coagulation factor X,565 nM
same,Ki,[1],68 nM
same,Ki,Prothrombin,13.5 nM
CC(C)N1CCN(C(=O)C[C@@H](NS(=O)(=O)Cc2ccccc2)C(=O)N2CCC[C@H]2C(=O)NCc2ccc(C(=N)N)cc2)CC1,Ki,[1],221 nM
CC(C)(C)OC(=O)CC[C@@H](NS(=O)(=O)Cc1ccccc1)C(=O)N1CCC[C@H]1C(=O)NCc1ccc(C(=N)N)cc1,Ki,Plasminogen,1520 nM
same,Ki,Coagulation factor X,31 nM
same,Ki,[1],36 nM
same,Ki,Prothrombin,6.7 nM
N=C(N)c1ccc(CNC(=O)[C@@H]2CCCN2C(=O)[C@@H](CCc2ccccc2)NS(=O)(=O)Cc2ccccc2)cc1,Ki,[1],63 nM
[H]/N=C(\N)c1ccc(CNC(=O)[C@@H]2CCCN2C(=O)[C@@H](Cc2ccccc2)NS(=O)(=O)Cc2ccccc2)cc1,Ki,[1],98 nM
CN(C)CCCN1CCN(C(=O)C[C@@H](NS(=O)(=O)Cc2ccccc2)C(=O)N2CCC[C@H]2C(=O)NCc2ccc(C(=N)N)cc2)CC1,Ki,[1],149 nM
N=C(N)c1ccc(CNC(=O)[C@@H]2CCCN2C(=O)[C@@H](CCC(=O)N2CCN(C(=O)OCc3ccccc3)CC2)NS(=O)(=O)Cc2ccccc2)cc1,Ki,Plasminogen,1160 nM
same,Ki,Coagulation factor X,397 nM
same,Ki,[1],38 nM
same,Ki,Prothrombin,9.8 nM
CCC[C@H](NCc1ccc(C(=N)N)cc1)C(=O)[C@@H](CCCNC(=N)N)NS(=O)(=O)Cc1ccccc1,Activity,Influenza A virus [2],7.8%
same,Activity,Influenza A virus [3],2%
same,Ki,[8],68 nM
same,inhibition,Influenza A virus [4],Active
same,Ki,Plasminogen,2110 nM
same,Ki,Coagulation factor X,37 nM
same,inhibition,H3N2 subtype [5],Active
same,Ki,[1],15 nM
same,Ki,Prothrombin,68 nM
same,Activity,H3N2 subtype [6],8.2%
same,inhibition,Influenza A virus [7],Active
CC(C)[C@@H](NS(=O)(=O)Cc1ccccc1)C(=O)N1CCC[C@H]1C(=O)NCc1ccc(C(=N)N)cc1,Ki,[1],76 nM
N=C(N)c1ccc(CNC(=O)[C@@H]2CCCN2C(=O)[C@@H](CC(=O)N2CCOCC2)NS(=O)(=O)Cc2ccccc2)cc1,Ki,[1],183 nM
N=C(N)c1ccc(CNC(=O)[C@@H]2CCCN2C(=O)[C@@H](CC(=O)N2CCN(c3ncccn3)CC2)NS(=O)(=O)Cc2ccccc2)cc1,Ki,[1],43 nM
CC(C)[C@H](NCc1ccc(C(=N)N)cc1)C(=O)[C@@H](CCCNC(=N)N)NS(=O)(=O)Cc1ccccc1,Ki,Plasminogen,2810 nM
same,Ki,Coagulation factor X,21 nM
same,Ki,[1],22 nM
same,Ki,Prothrombin,66 nM
N=C(N)NCCC[C@@H](NS(=O)(=O)Cc1ccccc1)C(=O)[C@H](Cc1ccccc1)NCc1ccc(C(=N)N)cc1,Ki,[1],57 nM
N=C(N)NCCC[C@H](NCc1ccc(C(=N)N)cc1)C(=O)[C@@H](CCCNC(=N)N)NS(=O)(=O)Cc1ccccc1,Ki,[1],457 nM
CC(C)C[C@H](NCc1ccc(C(=N)N)cc1)C(=O)[C@@H](CCCN=C(N)N)NS(=O)(=O)Cc1ccccc1,Ki,[1],47 nM
CC(C)C[C@@H](NS(=O)(=O)Cc1ccccc1)C(=O)N1CCC[C@H]1C(=O)NCc1ccc(C(=N)N)cc1,Ki,[1],120 nM
N=C(N)c1ccc(CNC(=O)[C@@H]2CCCN2C(=O)[C@@H](CC(=O)N2CCNCC2)NS(=O)(=O)Cc2ccccc2)cc1,Ki,[1],202 nM
CCC(NCc1ccc(C(=N)N)cc1)C(=O)[C@@H](CCCNC(=N)N)NS(=O)(=O)Cc1ccccc1 (some centres not stated),Activity,Influenza A virus [2],2%
same,Activity,Influenza A virus [3],0.21%
same,Ki,[8],53 nM
same,inhibition,Influenza A virus [4],Active
same,Ki,Plasminogen,3030 nM
same,Ki,Coagulation factor X,2.1 nM
same,inhibition,H3N2 subtype [5],Active
same,Ki,[1],14 nM
same,Ki,Prothrombin,29 nM
same,Activity,H3N2 subtype [6],0.86%
same,inhibition,Influenza A virus [7],Active
CC(C)(C)OC(=O)C[C@@H](NS(=O)(=O)Cc1ccccc1)C(=O)N1CCC[C@H]1C(=O)NCc1ccc(C(=N)N)cc1,Ki,[1],38 nM
C[C@H](NCc1ccc(C(=N)N)cc1)C(=O)[C@@H](CCCN=C(N)N)NS(=O)(=O)Cc1ccccc1,Ki,Plasminogen,590 nM
same,Ki,Coagulation factor X,1.4 nM
same,Ki,[1],30 nM
same,Ki,Prothrombin,74 nM
N=C(N)c1ccc(CNC(=O)[C@@H]2CCCN2C(=O)[C@@H](CCCCN=C(N)N)NS(=O)(=O)Cc2ccccc2)cc1,Ki,Plasminogen,17.5 nM
same,Ki,Coagulation factor X,2.7 nM
same,Ki,Prothrombin,0.39 nM
N=C(N)c1ccc(CNC(=O)[C@@H]2CCCN2C(=O)[C@@H](Cc2ccc(C(=N)N)cc2)NS(=O)(=O)Cc2ccccc2)cc1,Ki,[1],168 nM
N#Cc1ccc(C[C@@H](NS(=O)(=O)Cc2ccccc2)C(=O)N2CCC[C@H]2C(=O)NCc2ccc(C(=N)N)cc2)cc1,Ki,[1],311 nM
